This is an account of results in patent US7223759B2, “Antibacterial 3,5-diaminopiperidine-substituted aromatic and heteroaromatic compounds” (Anadys Pharmaceuticals, Inc., priority 2003, dated 2007).

In the first experiment the test system is Escherichia coli (ATCC25922) or Staphylococcus aureus (ATCC25923). In words: Antibacterial MIC, microdilution method in Mueller-Hinton medium. The class given is cell-based. To be noted: Escherichia coli, 18 h, MIC in E. coli or S. aureus; two-fold serial dilutions 64 to 0.5 μg/ml in duplicate; 18 hours of incubation at 35° C.; read-out: Potency (MIC). Summed up: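 Two-fold serial dilutions from 64 to 0.5 μg/ml, in duplicate, by broth microdilution in Mueller-Hinton medium (NCCLS M7-A5). MIC taken as the lowest concentration preventing visible growth after 18 h at 35° C.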
(In general: Broth dilution looks for growth in wells or tubes with falling amounts of substance.)
Take `C#Cc1cccc(Nc2nc(N3CCCCC3)nc(N3CCCCC3)n2)c1.Cl` [N-(3-ethylnyl-phenyl)-4,6-Bis-((3R,5S)-3,5-diamino-piperidin-1-yl)-[1,3,5]triazine-2-amine]: the MIC was > 64 µg/mL. The same measure, in the same setting: next, `CC(C)C(=O)Nc1ccc(Nc2nc(N3C[C@H](N)C[C@H](N)C3)nc(N3C[C@H](N)C[C@H](N)C3)n2)cc1O` [N-(3-hydroxy-4-isobutyrylamino-phenyl)-4,6-Bis-((3R,5S)-3,5-diamino-piperidin-1-yl)-[1,3,5]triazine-2-amine]: > 64 µg/mL; `N[C@@H]1C[C@H](N)CN(c2nc(Nc3ccc(NC(=O)Cc4ccccc4)c(O)c3)nc(N3C[C@H](N)C[C@H](N)C3)n2)C1` [N-(3-hydroxy-4-phenylacetylamino-phenyl)-4,6-Bis-((3R,5S)-3,5-diamino-piperidin-1-yl)-[1,3,5]triazine-2-amine]: < 64 µg/mL; `CCC(=O)Nc1ccc(Nc2nc(N3C[C@H](N)C[C@H](N)C3)nc(N3C[C@H](N)C[C@H](N)C3)n2)cc1O` [N-(3-hydroxy-4-propionylamino-phenyl)-4,6-Bis-((3R,5S)-3,5-diamino-piperidin-1-yl)-[1,3,5]triazine-2-amine]: < 64 µg/mL. Consider `CSc1cccc(Nc2nc(N3C[C@H](N)C[C@H](N)C3)nc(N3C[C@H](N)C[C@H](N)C3)n2)c1.Cl` [N-(3-methyylsulfanyl-phenyl)-4,6-Bis-((3R,5S)-3,5-diamino-piperidin-1-yl)-[1,3,5]triazine-2-amine], for which the minimal inhibitory concentration (MIC) is < 64 µg/mL. For `N[C@@H]1C[C@H](N)CN(c2nc(Nc3cccc(OC(F)(F)F)c3)nc(N3C[C@H](N)C[C@H](N)C3)n2)C1` [N-(3-trifluoromethoxy-phenyl)-4,6-Bis-((3R,5S)-3,5-diamino-piperidin-1-yl)-[1,3,5]triazine-2-amine], the MIC was > 64 µg/mL. Still for that read-out and setting: the same measure for `Cl.N[C@@H]1C[C@H](N)CN(c2nc(Nc3cccc(C(F)(F)F)c3)nc(N3C[C@H](N)C[C@H](N)C3)n2)C1` [N-(3-trifluoromethyl-phenyl)-4,6-Bis-((3R,5S)-3,5-diamino-piperidin-1-yl)-[1,3,5]triazine-2-amine]: < 64 µg/mL.

For `N[C@@H]1C[C@H](N)CN(c2nc(NNc3ccc([N+](=O)[O-])cc3[N+](=O)[O-])nc(N3C[C@H](N)C[C@H](N)C3)n2)C1` [N-(4,6-Bis-((3R,5S)-3,5-diamino-piperidin-1-yl)-[1,3,5]triazin-2-yl)-N′-(2,4-Dinitro-phenyl)-hydrazine], the minimal inhibitory concentration (MIC) was > 64 µg/mL. Still for that read-out and setting: the same measure for `Cl.N[C@@H]1C[C@H](N)CN(c2nc(NNc3cc(Cl)ccc3Cl)nc(N3C[C@H](N)C[C@H](N)C3)n2)C1` [N-(4,6-Bis-((3R,5S)-3,5-diamino-piperidin-1-yl)-[1,3,5]triazin-2-yl)-N′-(2,5-Dichloro-phenyl)-hydrazine]: < 64 µg/mL; for `Cc1csc2c(NNc3nc(N4C[C@H](N)C[C@H](N)C4)nc(N4C[C@H](N)C[C@H](N)C4)n3)ncnc12.Cl` [N-(4,6-Bis-((3R,5S)-3,5-diamino-piperidin-1-yl)-[1,3,5]triazin-2-yl)-N′-(7-Methyl-thieno[3,2-d]pyrimidin-4-yl)-hydrazine]: > 64 µg/mL.

The same experiment, now with this note: Escherichia coli, 18 h, read-out: Potency (MIC).
As for `Cc1c(Cl)cccc1CNc1nc(N2C[C@H](N)C[C@H](N)C2)nc(N2C[C@H](N)C[C@H](N)C2)n1` [N-(3-chloro-2-methyl-benzyl)-4,6-Bis-((3R,5S)-3,5-diamino-piperidin-1-yl)-[1,3,5]triazine-2-amine], the MIC is > 64 µg/mL. Still for that read-out and setting: the same measure for `N[C@@H]1C[C@H](N)CN(c2nc(Nc3ccc([N+](=O)[O-])c(Cl)c3)nc(N3C[C@H](N)C[C@H](N)C3)n2)C1` [N-(3-chloro-4-nitro-phenyl)-4,6-Bis-((3R,5S)-3,5-diamino-piperidin-1-yl)-[1,3,5]triazine-2-amine]: < 16 µg/mL; for `CN(C)c1cccc(Nc2nc(N3C[C@H](N)C[C@H](N)C3)nc(N3C[C@H](N)C[C@H](N)C3)n2)c1` [N-(3-dimethylamino-phenyl)-4,6-Bis-((3R,5S)-3,5-diamino-piperidin-1-yl)-[1,3,5]triazine-2-amine]: > 64 µg/mL; for `N[C@@H]1C[C@H](N)CN(c2nc(Nc3ccc(C(=O)Nc4ccc(S(=O)(=O)Nc5ccc6cn[nH]c6c5)cc4)c(O)c3)nc(N3C[C@H](N)C[C@H](N)C3)n2)C1` [N-(3-hydroxy-4-[4-(1H-indazol-6-ylsulfamoyl)-phenylcarbamoyl]-phenyl)-4,6-Bis-((3R,5S)-3,5-diamino-piperidin-1-yl)-[1,3,5]triazine-2-amine]: < 64 µg/mL.

In the case of `N[C@@H]1C[C@H](N)CN(c2nc(Nc3cccc(CO)c3)nc(N3C[C@H](N)C[C@H](N)C3)n2)C1` [N-(3-hydroxymethyl-phenyl)-4,6-Bis-((3R,5S)-3,5-diamino-piperidin-1-yl)-[1,3,5]triazine-2-amine], the MIC is > 64 µg/mL. The same measure, in the same setting: next, `N[C@@H]1C[C@H](N)CN(c2nc(NCCCn3ccnc3)nc(N3C[C@H](N)C[C@H](N)C3)n2)C1` [N-(3-imidazol-1-yl-propyl)-4,6-Bis-((3R,5S)-3,5-diamino-piperidin-1-yl)-[1,3,5]triazine-2-amine]: > 64 µg/mL; `Cc1cc(Nc2nc(N3C[C@H](N)C[C@H](N)C3)nc(N3C[C@H](N)C[C@H](N)C3)n2)ccc1[N+](=O)[O-]` [N-(3-methyl-4-nitro-phenyl)-4,6-Bis-((3R,5S)-3,5-diamino-piperidin-1-yl)-[1,3,5]triazine-2-amine]: < 64 µg/mL. In the case of `CNC(=S)NNc1nc(N2C[C@H](N)C[C@H](N)C2)nc(N2C[C@H](N)C[C@H](N)C2)n1` [N-(3-methyl-thioureido)-4,6-Bis-((3R,5S)-3,5-diamino-piperidin-1-yl)-[1,3,5]triazine-2-amine], the MIC is > 64 µg/mL. For `N[C@@H]1C[C@H](N)CN(c2nc(Nc3cccc([N+](=O)[O-])c3)nc(N3C[C@H](N)C[C@H](N)C3)n2)C1` [N-(3-nitro-phenyl)-4,6-Bis-((3R,5S)-3,5-diamino-piperidin-1-yl)-[1,3,5]triazine-2-amine], the MIC is > 64 µg/mL. Same read-out and setting: the same measure for `N[C@@H]1C[C@H](N)CN(c2nc(NNC3=NCCCN3)nc(N3C[C@H](N)C[C@H](N)C3)n2)C1` [N-(4,6-Bis-((3R,5S)-3,5-diamino-piperidin-1-yl)-[1,3,5]triazin-2-yl)-N′-(1,4,5,6-tetrahydro-pyrimidin-2-yl)-hydrazine]: > 64 µg/mL; for `N[C@@H]1C[C@H](N)CN(c2nc(NNc3ccccc3F)nc(N3C[C@H](N)C[C@H](N)C3)n2)C1` [N-(4,6-Bis-((3R,5S)-3,5-diamino-piperidin-1-yl)-[1,3,5]triazin-2-yl)-N′-(2-Fluoro-phenyl)-hydrazine]: > 64 µg/mL. Turning to `N[C@@H]1C[C@H](N)CN(c2nc(NNc3cc(Cl)cc(Cl)c3)nc(N3C[C@H](N)C[C@H](N)C3)n2)C1` [N-(4,6-Bis-((3R,5S)-3,5-diamino-piperidin-1-yl)-[1,3,5]triazin-2-yl)-N′-(3,5-Dichloro-phenyl)-hydrazine], the MIC is < 64 µg/mL. As to `N[C@@H]1C[C@H](N)CN(c2nc(NNc3cccc(Cl)c3)nc(N3C[C@H](N)C[C@H](N)C3)n2)C1` [N-(4,6-Bis-((3R,5S)-3,5-diamino-piperidin-1-yl)-[1,3,5]triazin-2-yl)-N′-(3-Chloro-phenyl)-hydrazine], the minimum inhibitory concentration (MIC) is < 64 µg/mL. Turning to `N[C@@H]1C[C@H](N)CN(c2nc(NNc3cccc(F)c3)nc(N3C[C@H](N)C[C@H](N)C3)n2)C1` [N-(4,6-Bis-((3R,5S)-3,5-diamino-piperidin-1-yl)-[1,3,5]triazin-2-yl)-N′-(3-Fluoro-phenyl)-hydrazine], the MIC is > 64 µg/mL.

Take `N[C@@H]1C[C@H](N)CN(c2nc(NNc3cccc(C(F)(F)F)c3)nc(N3C[C@H](N)C[C@H](N)C3)n2)C1` [N-(4,6-Bis-((3R,5S)-3,5-diamino-piperidin-1-yl)-[1,3,5]triazin-2-yl)-N′-(3-Trifluoromethyl-phenyl)-hydrazine]: the MIC is < 64 µg/mL.

In the case of `N[C@@H]1C[C@H](N)CN(c2nc(NNc3ccc(F)cc3)nc(N3C[C@H](N)C[C@H](N)C3)n2)C1` [N-(4,6-Bis-((3R,5S)-3,5-diamino-piperidin-1-yl)-[1,3,5]triazin-2-yl)-N′-(4-Fluoro-phenyl)-hydrazine], the MIC was < 64 µg/mL. Still for that read-out and setting: the same measure for `N[C@@H]1C[C@H](N)CN(c2nc(NNc3ccccc3)nc(N3C[C@H](N)C[C@H](N)C3)n2)C1` [N-(4,6-Bis-((3R,5S)-3,5-diamino-piperidin-1-yl)-[1,3,5]triazin-2-yl)-N′-Phenyl-hydrazine]: > 64 µg/mL. The same measure, in the same setting: the same measure for `N[C@@H]1C[C@H](N)CN(c2nc(NNc3ccccn3)nc(N3C[C@H](N)C[C@H](N)C3)n2)C1` [N-(4,6-Bis-((3R,5S)-3,5-diamino-piperidin-1-yl)-[1,3,5]triazin-2-yl)-N′-Pyridin-2-yl-hydrazine]: > 64 µg/mL.

As for `Cc1cccc(NNc2nc(N3C[C@H](N)C[C@H](N)C3)nc(N3C[C@H](N)C[C@H](N)C3)n2)c1` [N-(4,6-Bis-((3R,5S)-3,5-diamino-piperidin-1-yl)-[1,3,5]triazin-2-yl)-N′-m-Tolyl-hydrazine], the MIC was < 64 µg/mL.

Consider `Cc1ccccc1NNc1nc(N2C[C@H](N)C[C@H](N)C2)nc(N2C[C@H](N)C[C@H](N)C2)n1` [N-(4,6-Bis-((3R,5S)-3,5-diamino-piperidin-1-yl)-[1,3,5]triazin-2-yl)-N′-o-Tolyl-hydrazine], for which the minimum inhibitory concentration (MIC) is < 64 µg/mL. Regarding `Cc1ccc(NNc2nc(N3C[C@H](N)C[C@H](N)C3)nc(N3C[C@H](N)C[C@H](N)C3)n2)cc1` [N-(4,6-Bis-((3R,5S)-3,5-diamino-piperidin-1-yl)-[1,3,5]triazin-2-yl)-N′-p-Tolyl-hydrazine], the MIC was < 64 µg/mL. Still for that read-out and setting: the same measure for `CC(=O)c1ccc(Nc2nc(N3C[C@H](N)C[C@H](N)C3)nc(N3C[C@H](N)C[C@H](N)C3)n2)cc1` [N-(4-acetyl-phenyl)-4,6-Bis-((3R,5S)-3,5-diamino-piperidin-1-yl)-[1,3,5]triazine-2-amine]: < 64 µg/mL.

Broadly, the MIC is the lowest concentration that inhibits growth of the organism.
